Laboratory results taken from US20050288347A1, “Certain triazole-based compounds, compositions, and uses thereof” (priority 2004, published 2005).
“Also recorded” adds a separate entry of the source.

Molecular target: protein kinase
Test: HTS ATP-utilizing enzyme assay, off-chip mobility-shift format (Caliper HTS 250)
Type: biochemical, human
Conditions: test compound 10 μM; for Kinase: kinase(s) for which the compound exhibits protein kinase inhibitory activity, active = greater than three-sigma from the mean activity of inactive compounds; for protein kinase against which the compound exhibits inhibitory activity (Table 3): active = activity greater than three-sigma from the mean of the predominately inactive population for that enzyme
In short: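 Single-point screen at 10 μM compound in HEPES pH 7.5 buffer with Triton X-100 and BSA, 2.5 h at 20–22 °C. Substrate-to-phosphopeptide ratio measured by off-chip microfluidic mobility shift; EDTA wells as 100% and DMSO wells as 0% control, hits called at three-sigma limits.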

O=C(CSc1nnc(-c2ccccc2O)n1Cc1ccccc1)Nc1cccc(I)c1
Kinase: SYK

CSCCc1nnc(SCC#N)[nH]1 [2-(5-(2-(methylthio)ethyl)-4H-1,2,4-triazol-3-ylthio)acetonitrile]
Kinase: GSK3-α

CCn1c(SC(C)C(=O)O)nnc1-c1cccnc1 (stereo not drawn) [2-(4-ethyl-5-(pyridin-3-yl)-4H-1,2,4-triazol-3-ylthio)propanoic acid]
Kinase: LYNA

COc1ccc(NCc2nnc(S)n2-c2ccc(OC)cc2)cc1
Kinase: PDGFRR-α; also recorded: AURORA-A; also recorded: GSK3-α

Cn1c(SCC(=O)Nc2nccs2)nnc1-c1ccc(S(=O)(=O)N2CCOCC2)cc1
Kinase: GSK3-α; also recorded: GSK3-β

O=C(CSc1nnc(-c2ccc(O)cc2)n1-c1ccccc1)CC(=O)Nc1ccccc1
Kinase: AURORA-A; also recorded: GSK3-α

Cn1c(SCc2ccccn2)nnc1-c1ccc(O)cc1 [4-(4-methyl-5-(pyridin-2-ylmethylthio)-4H-1,2,4-triazol-3-yl)phenol]
protein kinase against which the compound exhibits inhibitory activity (Table 3): GSK3-β; also recorded: GSK3-α

CCn1c(S)nnc1-c1cc2ccccc2cc1O [3-(4-ethyl-5-mercapto-4H-1,2,4-triazol-3-yl)naphthalen-2-ol]
Kinase: AURORA-A

COCCCn1c(SCC(=O)N2CCCCC2)nnc1-c1ccc(C(C)(C)C)cc1
Kinase: CDK5

COc1ccc(-n2c(CNc3ccccc3Cl)nnc2SCC(=O)Nc2cccc(C(C)=O)c2)cc1
Kinase: CHEK2

Sc1nnc(COc2ccc3ccccc3c2)n1-c1ccccc1 [5-((naphthalen-2-yloxy)methyl)-4-phenyl-4H-1,2,4-triazole-3-thiol]
Kinase: AURORA-A

NC(=O)CSc1nnc(-c2ccc(O)cc2)n1-c1ccccc1 [2-(5-(4-hydroxyphenyl)-4-phenyl-4H-1,2,4-triazol-3-ylthio)acetamide]
Kinase: GSK3-β and GSK3-α and INSR

Cc1ccc(NCc2nnc(SCC(N)=O)n2CC2CCCO2)cc1Cl (stereo not drawn)
Kinase: AURORA-A

C=CCCc1nnc(SCc2ccccc2)n1Cc1ccc(Cl)c(Cl)c1 [3-(benzylthio)-5-(but-3-enyl)-4-(3,4-dichlorobenzyl)-4H-1,2,4-triazole]
protein kinase against which the compound exhibits inhibitory activity (Table 3): AURORA-A; also recorded: c-TAK1

Cc1cccc(-c2nnc(SCc3cccc4ccccc34)[nH]2)c1 [3-(naphthalen-1-ylmethylthio)-5-m-tolyl-4H-1,2,4-triazole]
protein kinase against which the compound exhibits inhibitory activity (Table 3): AURORA-A

Cn1c(SCc2ccc(C(C)(C)C)cc2)nnc1-c1cccnc1 [3-(5-(4-tert-butylbenzylthio)-4-methyl-4H-1,2,4-triazol-3-yl)pyridine]
protein kinase against which the compound exhibits inhibitory activity (Table 3): PDGFRR-α

CCOc1ccc(NCc2nnc(S)n2-c2cccc(Cl)c2)cc1
Kinase: PDGFRR-α; also recorded: FLT-3

O=C(CSc1nnc(-c2ccncc2)n1Cc1ccco1)NCc1ccco1
Kinase: FYN

COc1ccccc1-n1c(SCCn2cccc2)nnc1-c1cccc(Cl)c1
protein kinase against which the compound exhibits inhibitory activity (Table 3): ROCK2

COc1ccccc1-n1c(SCC(N)=O)nnc1-c1ccccc1O
Kinase: AURORA-A

CCCCSc1nnc(-c2ccccc2)[nH]1 [3-(butylthio)-5-phenyl-4H-1,2,4-triazole]
protein kinase against which the compound exhibits inhibitory activity (Table 3): AURORA-A; also recorded: FLT-3; also recorded: c-TAK1

O=C(CSc1nncn1-c1cccnc1)Nc1cccc(C(=O)O)c1 [3-(2-(4-(pyridin-3-yl)-4H-1,2,4-triazol-3-ylthio)acetamido)benzoic acid]
Kinase: AURORA-A

N#CCSc1nnc(-c2ccc(OC(F)(F)F)cc2)[nH]1 [2-(5-(4-(trifluoromethoxy)phenyl)-4H-1,2,4-triazol-3-ylthio)acetonitrile]
Kinase: DYRK2; also recorded: FLT-3; also recorded: AURORA-A

C=CCn1c(CCC2CCCC2)nnc1SCC=C(C)C [4-allyl-3-(2-cyclopentylethyl)-5-(3-methylbut-2-enylthio)-4H-1,2,4-triazole]
protein kinase against which the compound exhibits inhibitory activity (Table 3): DYRK2
